Data: patent US10449248B2, “Nutritional composition for improving the mammalian immune system” (N.V. Nutricia, priority 2008, dated 2019)

System: HepG2 cells
Assay: Glutathione content of HepG2 cells with or without glutathione precursor amino acids
Type: cell-based
Conditions: in vitro model of normal liver, FIG. 4

Q: How did the “effect on the glutathione homeostasis in liver HepG2 cells” value turn out when `NC(=O)CC[C@H](N)C(=O)O` [glutamine] was run?
A: The value was “positive effect”.

Q: How did the “effect on the glutathione homeostasis in liver HepG2 cells” value turn out when `N[C@@H](CS)C(=O)O` [cysteine] was run?
A: Its value is “positive effect”.
